Laboratory results as given in article PMC7287031 (Pharmacology Research & Perspectives, 2020).

How the values were obtained:
[1] = Human ADME study: quantitative metabolite profiling in plasma; assay type: in vivo; conditions: human plasma pools n=6, from metabolite patterns
Method: A plasma pool across the six healthy volunteers included in the study was prepared at the time points of 1 hour, 3 hours, 24 hours, and 48 hours post dose. For each time point, an equal volume of plasma was taken from each subject and combined. Plasma pool samples were processed by protein precipitation with acetonitrile. The protein pellet that resulted from precipitation with acetonitrile was washed further with additional aliquots of acetonitrile. All acetonitrile washes were combined and evaporated under nitrogen. For the 3‐ and 24‐hour plasma pools, the extraction procedure was slightly modified, including precipitation of the plasma proteins by addition of a 1:1 mixture of acetonitrile:methanol, followed by washing of the protein pellet with the same solvent mixture. All extracts were reconstituted with a solution of 15‐mM ammonium formate and acetonitrile (95:5 v/v). Extraction and reconstitution recoveries were measured in all four plasma samples in order to calculate and overall recovery. Quantitative metabolite profiling in plasma was accomplished using a Shimadzu Prominence high‐performance liquid chromatography (HPLC) system (Shimadzu, Columbia, MD, USA), coupled with fraction collection and analysis of total radioactivity in individual fractions using AMS (as described above). A second injection of each sample, conducted immediately after the first, was used to provide HPLC fractions for metabolite identification. The fractions identified as containing radioactivity from the AMS analysis were analyzed by HPLC coupled with high‐resolution mass spectrometry to identify the metabolites. The HPLC‐MS/MS methodology used is described below.

[2] = Human ADME study: mass balance, excretion of radioactivity in urine and feces; assay type: in vivo; conditions: for radioactive dose excreted in urine: N=6, after 504 hours, mean; for Cumulative excretion of radioactivity, Total (urine and feces, mean) / Cumulative excretion of radioactivity, Urine (mean): single oral dose 600 mg, healthy male volunteers, n=6
Method: This single‐center, open‐label, single oral dose study enrolled six healthy, non‐smoking, male Caucasian volunteers who were determined as being in good health according to their medical history, physical examination, vital signs, electrocardiogram, laboratory tests, and urinalysis. Healthy male volunteers were selected as the foundation of the extensive human ADME data should be based on a small cohort (6) of young healthy male volunteers with subsequent extension/bridging to actual patients as needed for the investigation of variables such as age, gender, ethnicity, and health on the metabolic profile. Subjects with relevant radiation exposure of > 0.2 mSv in the 12 months prior to the initiation of the study were excluded. […] The study protocol and dosimetry calculations were reviewed by the Independent Ethics Committee for the center, and written informed consent was obtained from all subjects before entering the study.
Subjects continued to fast for 4 hours after drug administration.
Radioactivity contents in urine and feces homogenates were determined at the bioanalytical laboratory of PRA International, Zuidlaren, the Netherlands. For urine, duplicate (1000 µL) aliquots were placed into 7‐mL glass vials (Perkin Elmer), after which 5 mL of scintillation cocktail (Ultima Gold™, Perkin Elmer) was added. After vortex mixing for 5 seconds, each sample was placed in a Tri‐Carb™ 3100 TR liquid scintillation analyzer (Perkin Elmer, Waltham, MA, USA) 30 minutes before counting. The total [^14C]‐radioactivity of the samples was determined by counting until a statistical error (two standard deviations) of 0.5% was obtained with a counting time of 10 or 30 minutes, depending on the level of radioactivity.
For feces homogenates, quadruplicate, accurately weighed (500 mg) aliquots were dried in a stove at 50 °C for 3 hours. […] The absorber agent for CO2 was 7‐mL Carbo‐Sorb® E (Perkin Elmer). At the end of the combustion cycle, the absorber was mixed with 13 mL of the scintillant Permafluor® E (Perkin Elmer). The samples were placed in the liquid scintillation analyzer for 60 minutes before counting. The total [^14C]‐radioactivity of the samples was determined by counting until a statistical error (2 s) of 0.5% was obtained with a counting time of 10 or 30 minutes, depending on the level of radioactivity.

plasma protein = experiment: In vitro plasma protein binding (ultrafiltration), human; assay type: in vitro ADME; conditions: rat, dog
Method: (§1) Stock solutions were spiked into plasma to achieve the intended concentrations. After incubation for 1 hour at 37°C under constant gentle agitation, the spiked plasma samples (n = 3) were centrifuged (2000 g, 10 min, 37°C) in pre‐warmed Centrifree devices. Total radioactivity was determined in the ultrafiltrate (Cu, concentration of unbound compound) and in the sample introduced into the reservoir before ultrafiltration (Cp). The unbound (fu) and the bound (fb) fraction in plasma were calculated as follows: fu (%) = Cu/Cp × 100; fb (%) = 100‐Fu (%).

[3] = as above; assay type: in vitro ADME; conditions: plasma, 10-10 000 ng/mL
Method: as §1

For `CN(C)C(=O)c1cc2cnc(Nc3ccc(N4CCNCC4)cn3)nc2n1C1CCCC1` [ribociclib, Ribociclib], the “AUC0-48h, % of total [14C]-AUC0-48” value [1] was “approximately 43.5%”, the “AUC0-48h, % of total [14C]-AUC0-48” value ([1]; listed as Ribociclib) was 43.5% and the “radioactive dose excreted in urine” value ([2]; human, single oral 600 mg [14C]-ribociclib) was 22.6%. The “radioactive dose excreted in urine” value ([2]; human, single oral 600 mg [14C]-ribociclib, listed as [^14C]‐ribociclib) was 22.6 ± 5.39%, the “mass balance (total recovery of radioactivity)” value ([2]; human, single oral 600 mg [14C]-ribociclib, N=6, mean) was 91.7 ± 1.01% and the “Oral absorption (estimate)” value ([2]; human, radioactivity in urine plus radiolabeled metabolites in feces, assuming all formed systemically) was “approximately 58.8%”. For the same molecule, the “Cumulative excretion of radioactivity, Total (urine and feces, mean)” value (shortened to “Cumulative excretion … (urine and feces, mean)”) ([2]; time 0 h) was 0 % of dose, the “Cumulative excretion of radioactivity, Urine (mean)” value (“Cumulative excretion … (mean)” for short) ([2]; time 0 h) was 0 % of dose and the “Cumulative excretion … (mean)” value ([2]; time 6 h) was 4.85 % of dose. The “Cumulative excretion … (mean)” value ([2]; time 12 h) was 9.15 % of dose, the “Cumulative excretion … (urine and feces, mean)” value ([2]; time 24 h) was 17.2 % of dose and the “Cumulative excretion … (mean)” value ([2]; time 24 h) was 12.9 % of dose. For the same molecule, the “Cumulative excretion … (urine and feces, mean)” value ([2]; time 48 h) was 47.5 % of dose, the “Cumulative excretion … (mean)” value ([2]; time 48 h) was 17.0 % of dose and the “Cumulative excretion … (urine and feces, mean)” value ([2]; time 72 h) was 63.9 % of dose. For the same molecule, the “Cumulative excretion … (mean)” value ([2]; time 72 h) was 19.0 % of dose, the “Cumulative excretion … (urine and feces, mean)” value ([2]; time 96 h) was 75.9 % of dose and the “Cumulative excretion … (mean)” value ([2]; time 96 h) was 20.2 % of dose. The “Cumulative excretion … (urine and feces, mean)” value ([2]; time 120 h) was 79.7 % of dose, the “Cumulative excretion … (mean)” value ([2]; time 120 h) was 20.9 % of dose and the “Cumulative excretion … (urine and feces, mean)” value ([2]; time 144 h) was 83.8 % of dose. The “Cumulative excretion … (mean)” value ([2]; time 144 h) was 21.4 % of dose, the “Cumulative excretion … (urine and feces, mean)” value ([2]; time 168 h) was 86.7 % of dose and the “Cumulative excretion … (mean)” value ([2]; time 168 h) was 21.8 % of dose. For the same molecule, the “Cumulative excretion … (urine and feces, mean)” value ([2]; time 216 h) was 88.6 % of dose, the “Cumulative excretion … (mean)” value ([2]; time 216 h) was 22.2 % of dose and the “Cumulative excretion … (urine and feces, mean)” value ([2]; time 240 h) was 89.1 % of dose. The “Cumulative excretion … (mean)” value ([2]; time 240 h) was 22.3 % of dose, the “Cumulative excretion … (urine and feces, mean)” value ([2]; time 264 h) was 89.6 % of dose and the “Cumulative excretion … (mean)” value ([2]; time 264 h) was 22.5 % of dose. For the same molecule, the “Cumulative excretion … (urine and feces, mean)” value ([2]; time 288 h) was 90.3 % of dose, the “Cumulative excretion … (mean)” value ([2]; time 288 h) was 22.5 % of dose and the “Cumulative excretion … (urine and feces, mean)” value ([2]; time 336 h) was 90.9 % of dose. The “Cumulative excretion … (mean)” value ([2]; time 336 h) was 22.6 % of dose, the “Cumulative excretion … (urine and feces, mean)” value ([2]; time 360 h) was 91.1 % of dose and the “Cumulative excretion … (mean)” value ([2]; time 360 h) was 22.6 % of dose. The “Cumulative excretion … (urine and feces, mean)” value ([2]; time 384 h) was 91.3 % of dose, the “Cumulative excretion … (mean)” value ([2]; time 384 h) was 22.6 % of dose and the “Cumulative excretion … (urine and feces, mean)” value ([2]; time 408 h) was 91.4 % of dose. For the same molecule, the “Cumulative excretion … (mean)” value ([2]; time 408 h) was 22.6 % of dose, the “Cumulative excretion … (urine and feces, mean)” value ([2]; time 432 h) was 91.6 % of dose and the “Cumulative excretion … (mean)” value ([2]; time 432 h) was 22.6 % of dose. The “Cumulative excretion … (urine and feces, mean)” value ([2]; time 456 h) was 91.6 % of dose, the “Cumulative excretion … (mean)” value ([2]; time 456 h) was 22.6 % of dose and the “Cumulative excretion … (urine and feces, mean)” value ([2]; time 480 h) was 91.7 % of dose. For the same molecule, the “Cumulative excretion … (mean)” value ([2]; time 480 h) was 22.6 % of dose, the “Cumulative excretion … (urine and feces, mean)” value ([2]; time 504 h) was 91.7 % of dose and the “Cumulative excretion … (mean)” value ([2]; time 504 h) was 22.6 % of dose. The “difference in unbound fraction in plasma between species” value (plasma protein) was “up to 1.7 fold” and the fraction unbound at 1 h [3] was 0.3 ± 0.02.
